{
  "source": "paper PMC12508057",
  "about": "“Discovery of ETI41 and ETI60: novel selective endosomal Toll-like receptor inhibitors for the treatment of autoimmune diseases” (Experimental & Molecular Medicine, 2025)",
  "format_in_all_cases": "cell-based",
  "key": {"[1]": {"assay": "MTT assay, cell survival in RAW 264.7", "conditions": "mouse, RAW 264.7 cells, RAW 264.7 cell line, read-out: LC50", "description": "After 24 h, the supernatant was removed, and 500 μg/ml of 3-[4,5-dimethylthiazol-2-yl]-2,5 diphenyl tetrazolium bromide (MTT) solution (Invivogen) was added. After a 3 h incubation, the supernatant was removed, and DMSO was added to dissolve the formazan dye.\nOne-tailed paired Student’s t-tests were performed using Microsoft Excel (Microsoft). […] The therapeutic index was calculated as […]. Animal experimental results are expressed as mean ± standard deviation and analyzed using SPSS v.20 (IBM SPSS Statistics). Homogeneity of variance was assessed using Levene’s test.\nData are from at least three independent experiments (n = 3) and statistical differences between the induced case and other cases were analyzed and verified using a one-tailed Student’s t-test (*P < 0.05, **P < 0.01, ***P < 0.001)."}, "TLR7": {"biological_target": "T1, TLR7 (Mus musculus, UniProt P58681)", "T1 construct": "endogenous in cells; host or cells: RAW 264.7", "T1 sequence (P58681 27-1050)": "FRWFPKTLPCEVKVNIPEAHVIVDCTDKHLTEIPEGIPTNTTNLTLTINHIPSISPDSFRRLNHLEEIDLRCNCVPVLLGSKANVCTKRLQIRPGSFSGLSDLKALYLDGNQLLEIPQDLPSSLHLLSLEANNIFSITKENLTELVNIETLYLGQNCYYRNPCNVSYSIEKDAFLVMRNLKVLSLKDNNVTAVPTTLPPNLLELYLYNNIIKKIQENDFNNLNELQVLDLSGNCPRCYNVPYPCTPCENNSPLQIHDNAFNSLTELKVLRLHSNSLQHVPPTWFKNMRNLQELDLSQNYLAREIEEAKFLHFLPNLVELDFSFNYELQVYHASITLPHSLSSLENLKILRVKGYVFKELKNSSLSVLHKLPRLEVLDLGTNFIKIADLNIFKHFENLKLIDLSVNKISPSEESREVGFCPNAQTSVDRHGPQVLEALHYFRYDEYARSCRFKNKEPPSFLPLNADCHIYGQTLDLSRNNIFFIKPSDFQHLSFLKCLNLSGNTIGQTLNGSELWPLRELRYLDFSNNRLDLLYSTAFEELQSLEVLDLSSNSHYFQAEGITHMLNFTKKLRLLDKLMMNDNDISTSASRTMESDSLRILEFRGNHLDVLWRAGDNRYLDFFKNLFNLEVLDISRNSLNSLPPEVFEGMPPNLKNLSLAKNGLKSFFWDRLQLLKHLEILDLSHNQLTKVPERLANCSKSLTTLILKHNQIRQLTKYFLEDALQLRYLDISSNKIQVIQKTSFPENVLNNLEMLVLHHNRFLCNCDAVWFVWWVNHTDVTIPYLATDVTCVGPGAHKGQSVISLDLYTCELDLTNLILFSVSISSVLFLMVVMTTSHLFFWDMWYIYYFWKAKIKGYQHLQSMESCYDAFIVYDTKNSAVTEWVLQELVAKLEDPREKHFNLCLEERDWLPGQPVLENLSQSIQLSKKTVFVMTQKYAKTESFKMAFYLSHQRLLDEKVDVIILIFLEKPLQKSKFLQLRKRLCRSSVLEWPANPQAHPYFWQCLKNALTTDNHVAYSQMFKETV", "assay": "TLR7 inhibition, TNF-α secretion (ELISA) in RAW 264.7", "description": "(§1) RAW 264.7 and differentiated THP-1 cells were seeded into 96-well plates at 2 × 10^4 cells per well, while Daudi cells were seeded at 5 × 10^4 cells per well. After stabilization for 30 min, cells were stimulated with specific TLR agonists for 4 or 24 h. Supernatants were diluted and transferred to precoated ELISA plates to measure TNF-α secretion using kits from Invitrogen. Optical absorbance was measured using a BioTek Synergy HTX multimode microplate reader, and data were interpolated using BioTek Gen5 software.\n(§2) One-tailed paired Student’s t-tests were performed using Microsoft Excel (Microsoft). Semi-logarithmic conversions and nonregression curve analyses for calculating 50% lethal concentration (LC50) and 50% inhibitory concentration (IC50) values were conducted using GraphPad Prism 7.0 (GraphPad). The therapeutic index was calculated as […]. Animal experimental results are expressed as mean ± standard deviation and analyzed using SPSS v.20 (IBM SPSS Statistics). Homogeneity of variance was assessed using Levene’s test.\n(§3) The cells were activated with agonistic ligands: […], TLR3 (poly I:C, 2 μg/ml, 24 h), TLR4 (LPS, 10 or 100 ng/ml, 4 h), TLR5 (FLA-ST, 500 ng/ml, 4 h), TLR7 (ORN06/LyoVec, 2 μg/ml, 24 h; and IMQ, 1 μg/ml, 4 h), TLR8 (TL8-506, 2 μg/ml, 24 h) and TLR9 (ODN2395, 1 μM, 4 h) at various concentrations in RAW 264.7 cells, human Daudi cells and THP-1 cells. Data are from at least three independent experiments (n = 3) and statistical differences between the induced case and other cases were analyzed and verified using a one-tailed Student’s t-test (*P < 0.05, **P < 0.01, ***P < 0.001)."}, "TLR9": {"biological_target": "T2, TLR9 (Mus musculus, UniProt Q9EQU3)", "T2 construct": "endogenous in cells; host or cells: RAW 264.7", "T2 sequence (Q9EQU3 26-1032)": "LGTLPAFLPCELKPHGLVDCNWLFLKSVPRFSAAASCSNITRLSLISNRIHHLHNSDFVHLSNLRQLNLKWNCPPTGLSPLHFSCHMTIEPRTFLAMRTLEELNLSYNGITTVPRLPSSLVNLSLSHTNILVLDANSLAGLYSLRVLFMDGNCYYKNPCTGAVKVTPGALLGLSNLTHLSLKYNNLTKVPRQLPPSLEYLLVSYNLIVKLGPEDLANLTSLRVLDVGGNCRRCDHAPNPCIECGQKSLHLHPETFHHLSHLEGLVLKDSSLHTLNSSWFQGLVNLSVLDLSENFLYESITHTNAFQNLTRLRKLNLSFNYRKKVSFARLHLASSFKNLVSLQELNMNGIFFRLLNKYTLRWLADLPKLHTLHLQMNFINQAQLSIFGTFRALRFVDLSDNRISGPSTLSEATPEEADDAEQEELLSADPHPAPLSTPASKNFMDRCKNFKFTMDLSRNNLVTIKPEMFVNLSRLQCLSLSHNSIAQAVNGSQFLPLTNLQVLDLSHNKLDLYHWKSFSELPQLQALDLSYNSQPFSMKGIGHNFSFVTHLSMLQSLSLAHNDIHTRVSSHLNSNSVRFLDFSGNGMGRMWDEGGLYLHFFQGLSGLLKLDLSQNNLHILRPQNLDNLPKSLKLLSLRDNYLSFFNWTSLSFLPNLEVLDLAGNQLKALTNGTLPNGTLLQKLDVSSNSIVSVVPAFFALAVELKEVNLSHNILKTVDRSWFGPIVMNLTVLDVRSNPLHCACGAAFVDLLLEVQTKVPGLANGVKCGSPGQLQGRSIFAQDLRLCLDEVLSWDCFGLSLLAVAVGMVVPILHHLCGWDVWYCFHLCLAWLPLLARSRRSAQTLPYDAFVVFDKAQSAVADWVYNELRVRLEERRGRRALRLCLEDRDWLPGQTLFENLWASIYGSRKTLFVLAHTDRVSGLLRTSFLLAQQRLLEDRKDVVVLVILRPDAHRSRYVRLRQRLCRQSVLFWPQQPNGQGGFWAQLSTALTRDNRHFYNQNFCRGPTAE", "assay": "TLR9 inhibition, TNF-α secretion (ELISA) in RAW 264.7", "conditions": "RAW 264.7 cell line; read-out: TLR9 IC50 (mTNFα)", "description": "as §1, §2, §3"}, "endosomal TLRs": {"system": "endosomal TLRs", "assay": "Endosomal TLR-mediated TNF-α production, summary over cell lines", "conditions": "dose-dependent, without inducing cytotoxic effects", "description": "as §1\nTLR activation triggers the NF-κB pathway, resulting in increased production of pro-inflammatory cytokines, such as TNF-α and IL-6."}},
  "data": [
    {"smiles": "Cc1c(C)n(CCCN(C)C)c2nc3c(c(N)c12)CCCCC3", "note": "[ETI15, 1-(3-(dimethylamino)propyl)-2,3-dimethyl-1,5,6,7,8,9-hexahydrocyclohepta[b]pyrrolo[3,2-e]pyridin-4-amine]", "values": [
      {"measurement": "CC50 at 24 h", "setting": "[1]", "value": 67900, "unit": "nM"},
      {"measurement": "IC50", "setting": "TLR7; RAW 264.7 cell line, read-out: TLR7 IC50 (mTNFα)", "value": 2810, "unit": "nM"},
      {"measurement": "TLR7 TI value", "setting": "TLR7; therapeutic index, RAW 264.7", "value": 24.16},
      {"measurement": "IC50", "setting": "TLR9", "value": 360, "unit": "nM"},
      {"measurement": "TNF-α production by RAW 264.7 and Daudi cells", "setting": "endosomal TLRs", "value": "effectively inhibited"}
    ]}
  ]
}
